Where two headings read alike, the source gives them in different places.
Legend:
PC3-CXCR4.5 cells = experiment: MIP3α secretion by CXCR4-overexpressing PC3-CXCR4.5 cells (ELISA); assay type: cell-based
Excerpt: (§1) A PC3 prostate cell line that overexpresses high levels of CXCR4 was generated. […] FIG. 1A presents FACS histograms of PC3 cells (left panel) and a single cell clone with stable overexpression of CXCR4, GFP and luc genes (PC3-CXCR4.5, right panel) that were stained for the control (IgG2a-PE, full histograms) and CXCR4 (IgG2a-12G5, empty histograms) antibodies.
(§2) In this example, regulation of the chemokine MIP3α (macrophage inflammatory protein 3α) was examined. […] In FIG. 1B, PC3 (left panel) and PC3-CXCR4.5 (right panel) cells were stimulated with the indicated concentrations of CXCL12 for 48 hours and MIP3α secretion was assessed by ELISA. The results represent the average of triplicates±STDEV.
(§3) The effects of the CXCR4 antagonist AMD3100 and of 4F-benzoyl-TN14003 (4FB-TN14003), hitherto known as a CXCR4 antagonist, on MIP3α secretion were further tested. […] In FIG. 10, CXCR4 signaling in PC3 (left panel) and PC3-CXCR4.5 (right panel) cells was inhibited with anti-CXCL12 antibodies (αCXCL12) and Pertussis toxin (PTX) treatments alone or in combination with CXCL12, as indicated. Secretion of MIP3α was assessed by ELISA. The results represent the average of triplicates±STDEV.
Spontaneous secretion of MIP3α is CXCL12 and PTX independent in these cells.

PC3 cells = experiment: MIP3α secretion by PC3 prostate cells (ELISA); assay type: cell-based
Excerpt: as §1, §2, §3

[1] = tested on: hematopoietic progenitor cells (HPCs); experiment: Mobilization of hematopoietic progenitor cells to the blood, colony-forming cell assay; assay type: in vivo, C57BL/6 mice; conditions: 5 mg/kg s.c. 4F-benzoyl-TN14003 or AMD3100, 2 h, G-CSF 2.5 μg s.c. twice a day for 4 days, combination 18 h after last G-CSF
white-blood-cells (WBC) = assay type: in vivo; conditions: 5 mg/kg s.c. 4F-benzoyl-TN14003 or AMD3100, 2 h, G-CSF 2.5 μg s.c. twice a day for 4 days, combination 18 h after last G-CSF
[2] = tested on: BM cells on stromal cells (14F1.1); experiment: In vitro production of progenitors and mature cells from BM cells seeded on stromal cells (14F1.1); assay type: cell-based
Description: More specifically, the number of colonies was assayed by collecting the cells (10^5/plate) 4 days after treatment form the treated and control (untreated) plates, and evaluating the number of progenitor cells using a colony-forming cell assay. Burst forming units erythrocyte (BFU-E), colony forming units granulocyte-macrophage (CFU-GM), colony forming units megakaryocytes (CFU-M), and colony forming units granulocyte-erythrocyte-monocyte-macrophage (CFU-GEMM) were assayed by plating the cells in Iscove's-modified Dulbecco's Medium (IMDM) containing 1% methylcellulose, 15% FBS, 1% bovine serum albumin (BSA), 3 U/mL rh EPO, […] 2-mercaptoethanol, 2 mM L-glutamine, 50 ng/mL rmSCF, 10 ng/mL rmIL-3, […] rh Insulin, 10 ng/mL rh IL-6, and […] Human Transferrin (Methocult GF M3434; StemCell Technologies Inc.). The cultures were incubated at 37° C. in a humidified atmosphere containing 5% CO2. Seven days later, typical colonies were visually scored by morphologic criteria using a light microscope and the frequency of CFU was calculated. Staining colonies with benzidine dihydrochloride (Sigma, Israel) was used to localize hemoglobin-containing cells.

[3] = tested on: hematopoietic stem cells (HSCs); experiment: Hematopoietic stem cell assay: transplantation of mobilized blood cells into lethally irradiated mice, survival; assay type: in vivo, C57BL/6 mice; conditions: 2 h
Description: C57BL/6 mice, served as donors, were injected with 5 mg/kg of either 4F-benzoyl-TN14003 or AMD3100. 2 h later peripheral blood cells were collected following by ACK lysis and transferred into C57BL/6 recipient mice that were given a lethal dosing of irradiation (900 cGy) 24 h before i.v. injection of cells. A total cell obtained from 900 or 225 microliter of blood was transferred into single recipient mouse in a total volume of 200 μl PBS. Recipient mice transferred with cells obtained from blood of untreated mice or with normal BM cells were served as controls. Survival of mice was monitored for 4 months.
Although mobilization of HPCs may be of use for short-term repopulation in a transplantation setting, HSCs are required for long-term repopulation. To assess the effect of 4F-benzoyl-TN14003 on mobilization of murine HSCs, a transplantation model was used, in which donor C57Bl/6 mice were treated with 4F-benzoyl-TN14003 or AMD3100. After 2 h, blood was collected and cells isolated from an equal volume of blood obtained from each treated group (900 or 225 microliter in different experiments) were transferred for engraftment in lethally irradiated recipient C57Bl/6 mice. Survival of the recipient mice, indicative for long-term repopulating (LTR) activity and presence of HSCs, was monitored.

neutrophils = experiment: Chemotherapy (cyclophosphamide)-induced neutropenia model, neutrophil counts; assay type: in vivo, C57BL/6 mice; conditions: cyclophosphamide 150 + 100 mg/kg i.p. days 1 and 4, treatment s.c. days 4-7 (4F-benzoyl-TN14003 5 mg/kg)
Description: In the chemotherapy-induced neutropenia model, a protocol as previously described was followed (Zuluaga et al., 2006). Briefly, Female C57BL/6 mice were injected intraperitoneally with 150 and 100 mg/kg of Cyclophosphamide (CPM) on days 1 and 4, respectively. Following the treatment with CPM, mice were injected s.c. with either G-CSF […], 4F-benzoyl-TN14003 (5 mg/kg) or their combination on day 4, 5, 6 and 7. Blood samples were drawn from each mouse on day 0 and two hours after G-CSF/4F-benzoyl-TN14003 injections on days 4, 5, 6 and 7. Lysis of the erythrocyte population in the blood samples was done using ACK lysis buffer. The number of neutrophils was determined by FACS after staining the cells with anti-PE-Gr-1 antibody.
Neutropenia was induced in female C57BL/6 mice by administration of a total dose of 250 mg/kg cyclophosphamide (CPM) in two 0.5 mL intraperitoneal injections scheduled at day 1 (150 mg/kg) and day 4 (100 mg/kg). The CPM protocol caused 4 days of neutropenia (from day 4 to day 8). When mice were treated with the combination of G-CSF and 4F-benzoyl-TN14003, a significant number of neutrophils was detected in the blood on day 6, as compared to mice that were treated with CPM only or with G-CSF or 4F-benzoyl-TN14003 alone (FIG. 12).

[4] = tested on: granulocytes (GR-1 positive cells); experiment: Granulocyte (GR-1 positive) counts in blood and bone marrow in a chemotherapy model; assay type: in vivo, mice; conditions: CPM 250 mg/kg total i.p.; 4F-benzoyl-TN14003 5 mg/kg s.c., G-CSF 5 μg/mouse
Description: Mice received a total dose of 250 mg/kg cyclophosphamide (CPM) by two 0.25 ml intra-peritoneal injections scheduled at day 0 (150 mg/kg) and day 3 (100 mg/kg). Mice were subcutaneously treated with 0.2 ml of 4F-benzoyl-TN14003 (5 mg/kg) at the indicated time points, as detailed in FIG. 13A. Flow cytometery was used to assess the number of cells in the blood and bone marrow (BM), and distinguish between the different populations. Cells were gated according to forward scatter and side scatter to exclude dead cells and to identify granulocytes (GR-1 positive cells).
Mice received a total dose of 250 mg/kg CPM by two 0.25 ml intra-peritoneal injections scheduled at day 0 (150 mg/kg) and day 3 (100 mg/kg). Mice were subcutaneously treated with 0.2 ml of 4F-benzoyl-TN14003 (5 mg/kg) or G-CSF 5 μg/mouse or the combination of both at the indicated time points as detailed in FIG. 14A. Flow cytometery was used to assess the number of cells in the blood and bone marrow (BM) and distinguish between the different populations. Cells were gated according to forward scatter and side scatter to exclude dead cells and to determine granulocytes (GR-1 positive cells).

Molecule | MIP3α secretion (PC3-CXCR4.5 cells; PC3-CXCR4.5 cells, ELISA) | CXCR4 dependence of induced MIP3α secretion (PC3-CXCR4.5 cells; transfection with CXCR4-specific or control siRNA) | MIP3α secretion (PC3 cells) | BFU-E in blood, fold elevation of cell counts from control [1] | CFU-GEMM in blood, fold elevation of cell counts from control [1] | Progenitors in blood, fold elevation of cell counts from control [1] | BFU-E in blood, fold elevation of cell counts from control ([1]; listed as AMD31000) | Activated macrophages, fold elevation of cell counts from control (white-blood-cells (WBC)) | MNC, fold elevation of cell counts from control (white-blood-cells (WBC)) | Neutrophils, fold elevation of cell counts from control (white-blood-cells (WBC)) | Neutrophils, fold elevation of cell counts from control (white-blood-cells (WBC); listed as AMD31000) | Total WBC, fold elevation of cell counts from control (white-blood-cells (WBC); listed as AMD31000) | production of GR-1 and Ter119 positive cells and progenitors ([2]; stromal cells (14F1.1) seeded with BM cells, 4F-benzoyl-TN14003 10 microgram/ml, G-CSF 100 ng/ml, 4 days) | survival of lethally irradiated recipient mice ([3]; cells from 225 microliter of blood of donors given 5 mg/kg, day 33 post transplantation) | survival of lethally irradiated recipient mice ([3]; cells from 900 microliter of blood of donors given 5 mg/kg, day 11 post transplantation) | number of neutrophils in blood as % of the initial number in normal (untreated) mice (neutrophils; day 6) | number of neutrophils in blood as % of the initial number (neutrophils; day 7) | Total WBC, fold elevation of cell counts from control (white-blood-cells (WBC)) | differentiation and proliferation of BM cells on stromal cells (micrographs) ([2]; representative experiment, FIG. 17E) | GR-1 positive cells in the blood (flow cytometry) [4]
CXCL12: chemokine, CXCR4's only natural ligand | increased the secretion of MIP3α | CXCR4 dependent | increased the secretion of MIP3α | – | – | – | – | – | – | – | – | – | – | – | – | – | – | – | – | –
c1cc(CN2CCCNCCNCCCNCC2)ccc1CN1CCCNCCNCCCNCC1 [AMD3100, reference compound] | – | – | – | ~30 fold | 15.5 fold | 4.2 fold | 35 fold | 6.1 fold | 3.4 fold | 8 fold | 8.0 fold | 2.9 fold | did not demonstrate this effect | 37.5% | 73% | – | – | – | – | –
G-CSF: Granulocyte colony-stimulating factor (G-CSF) (Filgrastim Neupogen) (protein, UniProt P09919 31-207, looked up, N-terminal methionine) Granulocyte …: TPLGPASSLPQSFLLKCLEQVRKIQGDGAALQEKLVSECATYKLCHPEELVLLGHSLGIPWAPLSSCPSQALQLAGCLSQLHSGLFLYQGLLQALEGISPELGPTLDTLQLDVADFATTIWQQMEELGMAPALQPTQGAMPAFASAFQRRAGGVLVASHLQSFLEVSYRVLRHLAQP | – | – | – | 142 fold | 151 fold | 13.6 fold | – | 1.4 fold | 1.4 fold | – | – | – | – | – | – | only a mild effect | not sufficient to elevate neutrophil counts to their normal level | 1.9 fold | differentiating and proliferating | mobilize GR-1 positive cells and reduce neutropenia
